According to article PMC3710446 (Journal of pharmaceutical sciences, 2011):

What was measured:
SOPT2 [1] = experiment: Influence of compounds on [3H]DADLE uptake in RGC-5 cells; type: cell-based, rat; settings: compound 1 mM; for [3H]DADLE uptake in the presence of compound, % of control (Table 2): [3H]DADLE 10 nM, 30 min, control = 100; for stimulation of [3H]DADLE uptake: p < 0.001
SOPT1 = experiment: Uptake of [3H]deltorphin II in RGC-5 cells and influence of tripeptides; settings: RGC-5 cells, deltorphin II 25 nM
RGC-5 cells = experiment: Uptake of FITC-labeled HIV-1 Tat47–57 in RGC-5 cells; type: cell-based, rat; settings: FITC-Tat 25 nM, 15 min, NaCl-containing buffer, confocal microscopy
SOPT2 [2] = experiment: Uptake of [3H]DADLE in RGC-5 cells; settings: DADLE 25 nM, 30 min of incubation

Compound | [3H]DADLE uptake in the presence of compound, % of control (Table 2) (SOPT2 [1]) [%] | stimulation of [3H]DADLE uptake (SOPT2 [1]) [%] | further results
O=C1CC[C@@]2(O)[C@H]3Cc4ccc(O)c5c4[C@@]2(CCN3CC2CC2)[C@H]1O5 [Naltrexone, naltrexone] | 150 | 50 | –
CC(C)[C@H](NC(=O)[C@H](CCC(=O)O)NC(=O)[C@H](Cc1ccccc1)NC(=O)[C@@H](C)NC(=O)[C@@H](N)Cc1ccc(O)cc1)C(=O)N[C@H](C(=O)NCC(N)=O)C(C)C [Deltorphin II] | – | – | uptake of deltorphin II (SOPT1; absence of Na+): 1.1 ± 0.1 pmol/mg of protein/30 min; uptake of deltorphin II (SOPT1; presence of Na+): 3.6 ± 0.2 pmol/mg of protein/30 min
C=CCN1CC[C@]23c4c5ccc(O)c4O[C@H]2C(=O)CC[C@@]3(O)[C@H]1C5 [Naloxone, naloxone] | 133 | 33 | –
FITC-Tat47–57: Fluorescein isothiocyanate-conjugated Tat47–57 peptide | – | – | cellular uptake of FITC-labeled peptide (cell-associated green fluorescence) (RGC-5 cells): enters RGC-5 cells
CC(C)C[C@@H](NC(=O)[C@H](Cc1ccccc1)NC(=O)CNC(=O)[C@@H](C)NC(=O)[C@@H](N)Cc1ccc(O)cc1)C(=O)O [DADLE, [D-Ala^2, D-Leu^5]-Enkephalin] | – | – | uptake in the presence of Na+ relative to uptake in the absence of Na+ (SOPT2 [2]): 2–3 times
